Key:
full-length ATR = full-length ATR (Homo sapiens (Human), UniProt Q13535); assay: ATR inhibition assay (radioactive-phosphate incorporation); format: biochemical; conditions: 5 nM full-length ATR, Ki(app)
Experimental: Compounds were screened for their ability to inhibit ATR kinase using a radioactive-phosphate incorporation assay. Assays were carried out in a mixture of 50 mM Tris/HCl (pH 7.5), 10 mM MgCl2 and 1 mM DTT. Final substrate concentrations were 10 μM [y-33P]ATP (3 mCi 33P ATP/mmol ATP, Perkin Elmer) and 800 μM target peptide ([…]) (SEQ ID NO:1).
Assays were carried out at 25° C. in the presence of 5 nM full-length ATR. An assay stock buffer solution was prepared containing all of the reagents listed above, with the exception of ATP and the test compound of interest. 13.5 μL of the stock solution was placed in a 96 well plate followed by addition of 2 μL of DMSO stock containing serial dilutions of the test compound (typically starting from a final concentration of 15 μM with 3-fold serial dilutions) in duplicate (final DMSO concentration 7%). The plate was pre-incubated for 10 minutes at 25° C. and the reaction initiated by addition of 15 μL [γ-33P]ATP (final concentration 10 μM).
The reaction was stopped after […] by the addition of 30 μL 0.1M phosphoric acid containing 2 mM ATP. […]
After removing mean background values for all of the data points, Ki(app) data were calculated from non-linear regression analysis of the initial rate data using the Prism software package (GraphPad Prism version 3.0 cx for Macintosh, GraphPad Software, San Diego Calif., USA).

[1] = test system: HCT116 colorectal cancer cells; assay: Cisplatin sensitization assay (96 h cell viability MTS); format: cell-based; conditions: 96 h MTS, compound plus Cisplatin;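 note: compound concentration needed to lower the Cisplatin-alone IC50 by a set fold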
In short: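 Simultaneous addition of compound and cisplatin (2-fold series, top 10 μM final, full matrix), followed by 96 h culture at 37° C/5% CO2 and a 1 h MTS viability read.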

Sequence of full-length ATR (Q13535 whole entry): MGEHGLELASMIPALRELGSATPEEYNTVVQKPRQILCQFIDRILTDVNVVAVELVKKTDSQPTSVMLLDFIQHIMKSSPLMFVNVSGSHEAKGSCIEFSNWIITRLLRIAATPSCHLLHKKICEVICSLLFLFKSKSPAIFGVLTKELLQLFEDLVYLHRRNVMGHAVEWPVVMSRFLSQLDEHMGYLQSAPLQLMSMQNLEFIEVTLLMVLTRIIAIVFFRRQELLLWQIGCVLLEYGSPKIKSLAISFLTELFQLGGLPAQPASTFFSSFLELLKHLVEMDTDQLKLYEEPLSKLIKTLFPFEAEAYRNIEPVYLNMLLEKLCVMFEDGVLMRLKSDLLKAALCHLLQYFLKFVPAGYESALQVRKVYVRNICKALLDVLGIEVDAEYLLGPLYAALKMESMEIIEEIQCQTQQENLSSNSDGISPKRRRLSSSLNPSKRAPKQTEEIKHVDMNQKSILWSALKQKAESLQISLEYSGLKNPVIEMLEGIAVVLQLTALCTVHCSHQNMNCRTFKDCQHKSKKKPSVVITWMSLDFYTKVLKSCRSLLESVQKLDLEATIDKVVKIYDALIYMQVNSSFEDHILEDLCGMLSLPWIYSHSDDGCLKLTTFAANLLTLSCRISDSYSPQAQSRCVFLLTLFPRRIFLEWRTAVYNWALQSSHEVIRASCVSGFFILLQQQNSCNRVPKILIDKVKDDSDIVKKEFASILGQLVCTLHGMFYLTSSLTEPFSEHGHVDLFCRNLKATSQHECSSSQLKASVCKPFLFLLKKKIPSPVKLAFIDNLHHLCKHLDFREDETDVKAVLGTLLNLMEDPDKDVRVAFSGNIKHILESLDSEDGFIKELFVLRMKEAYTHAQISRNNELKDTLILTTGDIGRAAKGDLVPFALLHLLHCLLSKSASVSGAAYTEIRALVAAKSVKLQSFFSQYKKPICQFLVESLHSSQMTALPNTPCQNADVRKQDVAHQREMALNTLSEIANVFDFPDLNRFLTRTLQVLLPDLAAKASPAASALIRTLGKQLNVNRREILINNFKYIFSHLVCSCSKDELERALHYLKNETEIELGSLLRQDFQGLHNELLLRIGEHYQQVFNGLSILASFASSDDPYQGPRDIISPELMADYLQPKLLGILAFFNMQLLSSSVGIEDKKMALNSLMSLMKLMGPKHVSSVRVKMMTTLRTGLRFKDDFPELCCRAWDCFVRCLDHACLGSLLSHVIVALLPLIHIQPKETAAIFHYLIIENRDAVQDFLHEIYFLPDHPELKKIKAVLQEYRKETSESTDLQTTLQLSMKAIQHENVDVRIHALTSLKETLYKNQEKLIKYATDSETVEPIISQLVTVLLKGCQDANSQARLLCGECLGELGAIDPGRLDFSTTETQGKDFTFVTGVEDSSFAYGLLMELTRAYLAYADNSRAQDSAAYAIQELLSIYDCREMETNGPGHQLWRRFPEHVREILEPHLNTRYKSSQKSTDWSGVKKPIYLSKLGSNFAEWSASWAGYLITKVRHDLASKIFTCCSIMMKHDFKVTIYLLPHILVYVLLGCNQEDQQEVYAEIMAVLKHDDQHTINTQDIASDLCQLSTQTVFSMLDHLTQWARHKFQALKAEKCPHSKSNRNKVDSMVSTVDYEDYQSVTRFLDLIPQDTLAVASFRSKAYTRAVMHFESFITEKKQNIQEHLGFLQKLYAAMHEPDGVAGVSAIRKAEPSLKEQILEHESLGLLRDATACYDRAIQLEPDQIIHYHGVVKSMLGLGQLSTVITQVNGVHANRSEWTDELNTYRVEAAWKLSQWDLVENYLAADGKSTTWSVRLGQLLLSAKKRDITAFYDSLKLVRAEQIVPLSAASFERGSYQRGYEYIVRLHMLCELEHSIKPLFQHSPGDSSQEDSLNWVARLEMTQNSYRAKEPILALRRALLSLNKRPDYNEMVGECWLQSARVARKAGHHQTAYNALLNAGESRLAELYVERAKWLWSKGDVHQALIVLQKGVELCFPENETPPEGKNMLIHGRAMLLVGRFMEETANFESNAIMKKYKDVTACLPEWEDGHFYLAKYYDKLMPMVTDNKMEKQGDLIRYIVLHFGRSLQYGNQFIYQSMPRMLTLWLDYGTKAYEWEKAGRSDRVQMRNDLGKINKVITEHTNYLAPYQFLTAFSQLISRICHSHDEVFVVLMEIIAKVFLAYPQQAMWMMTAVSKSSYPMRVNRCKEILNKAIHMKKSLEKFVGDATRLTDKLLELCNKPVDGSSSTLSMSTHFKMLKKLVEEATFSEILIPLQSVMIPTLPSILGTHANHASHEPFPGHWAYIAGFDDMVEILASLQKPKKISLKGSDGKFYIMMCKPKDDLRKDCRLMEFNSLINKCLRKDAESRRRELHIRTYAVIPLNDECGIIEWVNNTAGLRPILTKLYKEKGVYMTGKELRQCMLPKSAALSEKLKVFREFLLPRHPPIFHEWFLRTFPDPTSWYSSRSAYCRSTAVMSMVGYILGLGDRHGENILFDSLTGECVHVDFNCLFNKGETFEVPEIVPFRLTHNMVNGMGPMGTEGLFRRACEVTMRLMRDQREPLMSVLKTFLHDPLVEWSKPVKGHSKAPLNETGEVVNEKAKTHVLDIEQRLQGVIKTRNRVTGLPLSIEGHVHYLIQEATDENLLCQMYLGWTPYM

Q: For `Nc1nn2cc(F)cnc2c1C(=O)Nc1cnccc1-c1ccc(C(=O)N2CCN3CCC2CC3)cc1F` [I-C-50, N-(4-(4-(1,4-diazabicyclo[3.2.2]nonane-4-carbonyl)-2-fluorophenyl)pyridin-3-yl)-2-amino-6-fluoropyrazolo[1,5-a]pyrimidine-3-carboxamide], which Ki (full-length ATR) is on record?
A: 10 to 1000 nM

Q: And the “Cisplatin Sensitization Assay” value [1]?
A: +++ (Compounds with a Cisplatin sensitization value of <0.02 μM are marked with “+++.”)

Q: What does the source list for `Nc1nn2cc(F)cnc2c1C(=O)Nc1cncc(F)c1N1CCC(C(=O)O)CC1` [I-N-92, 1-(3-(2-amino-6-fluoropyrazolo[1,5-a]pyrimidine-3-carboxamido)-5-fluoropyridin-4-yl)piperidine-4-carboxylic Acid]?
A: Ki (full-length ATR): 1000 to 5000 nM; Cisplatin Sensitization Assay [1]: + (Compounds with a Cisplatin sensitization value >0.2 μM but <5 μM are marked with “+.”)

Q: `Nc1nn2cc(Cl)cnc2c1C(=O)Nc1cnccc1O[C@@H]1CCNC1` [I-O-77, (R)-2-amino-6-chloro-N-(4-(pyrrolidin-3-yloxy)pyridin-3-yl)pyrazolo[1,5-a]pyrimidine-3-carboxamide] was tested. Which “Cisplatin Sensitization Assay” value [1] did it give?
A: ++ (Compounds with a Cisplatin sensitization value >0.02 μM but <0.2 μM are marked with “++.”)

Q: With `Nc1nn2cc(Cl)cnc2c1C(=O)Nc1cnccc1O[C@H]1C[C@]2(CCN2)C1` [I-O-78, N-(4-((4s,6r)-1-azaspiro[3.3]heptan-6-yloxy)pyridin-3-yl)-2-amino-6-chloropyrazolo[1,5-a]pyrimidine-3-carboxamide] as the molecule, how does the “Cisplatin Sensitization Assay” value [1] read?
A: + (Compounds with a Cisplatin sensitization value >0.2 μM but <5 μM are marked with “+.”)

Q: `Nc1nn2cc(Cl)cnc2c1C(=O)Nc1cnccc1O[C@H]1C[C@@]2(CCN2)C1` [I-O-79, N-(4-((4r,6s)-1-azaspiro[3.3]heptan-6-yloxy)pyridin-3-yl)-2-amino-6-chloropyrazolo[1,5-a]pyrimidine-3-carboxamide] was tested. Which “Cisplatin Sensitization Assay” value [1] did it give?
A: ++ (Compounds with a Cisplatin sensitization value >0.02 μM but <0.2 μM are marked with “++.”)

Q: How did the “Cisplatin Sensitization Assay” value [1] turn out when `Nc1nn2cc(Cl)cnc2c1C(=O)Nc1cnccc1OC1CCNCC1` [I-O-80, 2-amino-6-chloro-N-(4-(piperidin-4-yloxy)pyridin-3-yl)pyrazolo[1,5-a]pyrimidine-3-carboxamide] was run?
A: +++ (Compounds with a Cisplatin sensitization value of <0.02 μM are marked with “+++.”)

Q: How did the “Cisplatin Sensitization Assay” value [1] turn out when `Nc1nn2cc(Cl)cnc2c1C(=O)Nc1cnccc1O[C@@H]1CCCNC1` [I-O-81, (R)-2-amino-6-chloro-N-(4-(piperidin-3-yloxy)pyridin-3-yl)pyrazolo[1,5-a]pyrimidine-3-carboxamide] was run?
A: ++ (Compounds with a Cisplatin sensitization value >0.02 μM but <0.2 μM are marked with “++.”)

Q: `N#CCc1cnc2c(C(=O)Nc3cnccc3OC3CNC3)c(N)nn2c1` [I-O-82, 2-amino-N-(4-(azetidin-3-yloxy)pyridin-3-yl)-6-(cyanomethyl)pyrazolo[1,5-a]pyrimidine-3-carboxamide] was tested. Which “Cisplatin Sensitization Assay” value [1] did it give?
A: ++ (Compounds with a Cisplatin sensitization value >0.02 μM but <0.2 μM are marked with “++.”)

Q: With `N#CCc1cnc2c(C(=O)Nc3cnccc3OCCN)c(N)nn2c1` [I-O-83, 2-amino-N-(4-(2-aminoethoxy)pyridin-3-yl)-6-(cyanomethyl)pyrazolo[1,5-a]pyrimidine-3-carboxamide] as the molecule, how does the “Cisplatin Sensitization Assay” value [1] read?
A: +++ (Compounds with a Cisplatin sensitization value of <0.02 μM are marked with “+++.”)

Q: `N#CCc1cnc2c(C(=O)Nc3cnccc3OC3CCNCC3)c(N)nn2c1` [I-O-84, 2-amino-6-(cyanomethyl)-N-(4-(piperidin-4-yloxy)pyridin-3-yl)pyrazolo[1,5-a]pyrimidine-3-carboxamide] was tested. Which “Cisplatin Sensitization Assay” value [1] did it give?
A: ++ (Compounds with a Cisplatin sensitization value >0.02 μM but <0.2 μM are marked with “++.”)

Q: With `Nc1nn2cc(F)cnc2c1C(=O)Nc1cnccc1O[C@H]1CCCNC1` [I-O-85, (S)-2-amino-6-fluoro-N-(4-(piperidin-3-yloxy)pyridin-3-yl)pyrazolo[1,5-a]pyrimidine-3-carboxamide] as the molecule, how does the “Cisplatin Sensitization Assay” value [1] read?
A: +++ (Compounds with a Cisplatin sensitization value of <0.02 μM are marked with “+++.”)

Q: How did the “Cisplatin Sensitization Assay” value [1] turn out when `N#CCc1cnc2c(C(=O)Nc3cnccc3O[C@H]3CCNC3)c(N)nn2c1` [I-O-86, (S)-2-amino-6-(cyanomethyl)-N-(4-(pyrrolidin-3-yloxy)pyridin-3-yl)pyrazolo[1,5-a]pyrimidine-3-carboxamide] was run?
A: ++ (Compounds with a Cisplatin sensitization value >0.02 μM but <0.2 μM are marked with “++.”)

Q: Which “Cisplatin Sensitization Assay” value [1] does the source give for `CC(C)(C)Oc1ccncc1NC(=O)c1c(N)nn2cc(F)cnc12` [I-O-88, 2-amino-N-(4-(tert-butoxy)pyridin-3-yl)-6-fluoropyrazolo[1,5-a]pyrimidine-3-carboxamide] here?
A: +++ (Compounds with a Cisplatin sensitization value of <0.02 μM are marked with “+++.”)

Q: `CN1CCC(Oc2c(F)cncc2NC(=O)c2c(N)nn3cc(F)cnc23)CC1` [I-O-89, 2-amino-6-fluoro-N-(5-fluoro-4-((1-methylpiperidin-4-yl)oxy)pyridin-3-yl)pyrazolo[1,5-a]pyrimidine-3-carboxamide] was tested. Which “Cisplatin Sensitization Assay” value [1] did it give?
A: ++ (Compounds with a Cisplatin sensitization value >0.02 μM but <0.2 μM are marked with “++.”)

Q: How did the “Cisplatin Sensitization Assay” value [1] turn out when `CNc1cc(OC)c(NC(=O)c2c(N)nn3cc(F)cnc23)cn1` [I-O-90, 2-amino-6-fluoro-N-(4-methoxy-6-(methylamino)pyridin-3-yl)pyrazolo[1,5-a]pyrimidine-3-carboxamide] was run?
A: + (Compounds with a Cisplatin sensitization value >0.2 μM but <5 μM are marked with “+.”)

Q: `Nc1nn2cc(F)cnc2c1C(=O)Nc1cncc(F)c1OC1CCN(C2COC2)CC1` [I-O-91, 2-amino-6-fluoro-N-(5-fluoro-4-((1-(oxetan-3-yl)piperidin-4-yl)oxy)pyridin-3-yl)pyrazolo[1,5-a]pyrimidine-3-carboxamide] was tested. Which “Cisplatin Sensitization Assay” value [1] did it give?
A: ++ (Compounds with a Cisplatin sensitization value >0.02 μM but <0.2 μM are marked with “++.”)

Q: Which “Cisplatin Sensitization Assay” value [1] does the source give for `Nc1nn2cc(F)cnc2c1C(=O)Nc1cnccc1OC1COC1` [I-O-92, 2-amino-6-fluoro-N-(4-(oxetan-3-yloxy)pyridin-3-yl)pyrazolo[1,5-a]pyrimidine-3-carboxamide] here?
A: +++ (Compounds with a Cisplatin sensitization value of <0.02 μM are marked with “+++.”)

From patent US10787452B2 (Vertex Pharmaceuticals Incorporated, priority 2012, dated 2020)
